Measured values taken from ChEMBL document CHEMBL5715260, “Selectivity Literature for EUbOPEN Chemogenomic Library” (2024).

How the values were obtained:
[1] = target: T1, Hepatocyte nuclear factor 4-alpha (Homo sapiens) (UniProt P41235); test: Selectivity interaction (Reporter gene assay) EUB0001144a HNF4A; parameters: recommended concentration 1 uM
T1 sequence (whole entry): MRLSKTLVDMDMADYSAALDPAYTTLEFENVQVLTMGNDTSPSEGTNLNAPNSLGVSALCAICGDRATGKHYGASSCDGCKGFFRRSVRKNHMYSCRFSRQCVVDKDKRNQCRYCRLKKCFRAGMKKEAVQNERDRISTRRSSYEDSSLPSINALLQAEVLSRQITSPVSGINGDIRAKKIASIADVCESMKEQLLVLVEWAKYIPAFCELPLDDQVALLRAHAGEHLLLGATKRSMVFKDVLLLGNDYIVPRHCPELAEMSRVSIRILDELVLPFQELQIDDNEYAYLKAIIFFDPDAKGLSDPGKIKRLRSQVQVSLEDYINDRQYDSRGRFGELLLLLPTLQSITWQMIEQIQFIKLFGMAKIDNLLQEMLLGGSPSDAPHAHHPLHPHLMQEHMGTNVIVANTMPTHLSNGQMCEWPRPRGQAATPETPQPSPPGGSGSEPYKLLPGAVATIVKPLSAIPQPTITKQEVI

[2] = target: T2, Nuclear receptor subfamily 2 group C member 1 (Homo sapiens) (UniProt P13056); test: Selectivity interaction (Reporter gene assay) EUB0001144a NR2C1; parameters: recommended concentration 1 uM
T2 sequence (whole entry): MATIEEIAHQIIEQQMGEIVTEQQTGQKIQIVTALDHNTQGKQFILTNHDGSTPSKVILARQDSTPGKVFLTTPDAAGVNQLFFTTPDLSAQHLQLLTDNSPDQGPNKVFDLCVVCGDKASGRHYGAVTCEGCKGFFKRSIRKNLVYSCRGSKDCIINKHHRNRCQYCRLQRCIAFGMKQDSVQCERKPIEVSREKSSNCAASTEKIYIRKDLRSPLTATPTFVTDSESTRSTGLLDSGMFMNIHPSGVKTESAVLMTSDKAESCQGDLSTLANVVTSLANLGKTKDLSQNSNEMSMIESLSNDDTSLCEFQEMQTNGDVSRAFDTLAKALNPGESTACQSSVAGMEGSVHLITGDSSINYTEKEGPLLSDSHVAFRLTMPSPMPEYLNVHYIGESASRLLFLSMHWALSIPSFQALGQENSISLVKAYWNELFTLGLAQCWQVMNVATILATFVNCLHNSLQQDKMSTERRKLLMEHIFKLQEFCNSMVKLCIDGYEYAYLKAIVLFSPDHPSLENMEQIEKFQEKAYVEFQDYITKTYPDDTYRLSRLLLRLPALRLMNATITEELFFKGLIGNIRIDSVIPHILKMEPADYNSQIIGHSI

[3] = target: Nuclear receptor subfamily 2 group E member 1 (Homo sapiens) (UniProt Q9Y466); test: Selectivity interaction (Reporter gene assay) EUB0001144a NR2E1; parameters: recommended concentration 1 uM
Nuclear receptor subfamily 2 group E member 1 (Homo sapiens), sequence (Q9Y466 whole entry): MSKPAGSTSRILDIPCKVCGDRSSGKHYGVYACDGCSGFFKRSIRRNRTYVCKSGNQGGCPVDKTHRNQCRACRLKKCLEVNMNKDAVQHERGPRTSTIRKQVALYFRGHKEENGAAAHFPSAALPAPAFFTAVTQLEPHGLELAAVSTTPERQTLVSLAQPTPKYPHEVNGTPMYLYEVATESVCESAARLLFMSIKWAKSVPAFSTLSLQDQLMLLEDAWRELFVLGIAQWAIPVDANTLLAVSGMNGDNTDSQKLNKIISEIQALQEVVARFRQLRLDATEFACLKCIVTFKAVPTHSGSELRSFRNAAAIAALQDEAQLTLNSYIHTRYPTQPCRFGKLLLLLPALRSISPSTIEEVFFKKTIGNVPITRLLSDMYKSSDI

[4] = target: Nuclear receptor subfamily 4immunitygroup A member 1 (Homo sapiens) (UniProt P22736); test: Selectivity interaction (Reporter gene assay) EUB0001144a NR4A1; parameters: recommended concentration 1 uM
Nuclear receptor subfamily 4immunitygroup A member 1 (Homo sapiens), sequence (P22736 whole entry): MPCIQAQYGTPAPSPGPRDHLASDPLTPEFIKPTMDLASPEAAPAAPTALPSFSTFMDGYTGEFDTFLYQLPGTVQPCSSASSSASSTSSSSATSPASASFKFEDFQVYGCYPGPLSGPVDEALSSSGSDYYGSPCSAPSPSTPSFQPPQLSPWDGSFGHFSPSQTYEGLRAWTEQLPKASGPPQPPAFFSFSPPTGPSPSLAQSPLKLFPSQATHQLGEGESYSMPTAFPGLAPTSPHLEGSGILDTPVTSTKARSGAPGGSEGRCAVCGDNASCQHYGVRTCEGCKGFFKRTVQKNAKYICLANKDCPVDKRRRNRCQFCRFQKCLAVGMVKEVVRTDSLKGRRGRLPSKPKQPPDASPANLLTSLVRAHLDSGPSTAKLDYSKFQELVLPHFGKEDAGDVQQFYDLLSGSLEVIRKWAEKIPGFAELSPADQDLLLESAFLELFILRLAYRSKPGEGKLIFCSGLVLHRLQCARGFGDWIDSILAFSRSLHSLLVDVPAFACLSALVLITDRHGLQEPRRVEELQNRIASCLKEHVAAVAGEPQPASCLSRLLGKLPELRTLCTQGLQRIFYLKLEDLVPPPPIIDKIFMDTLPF

[5] = target: Steroidogenic factor 1 (Homo sapiens) (UniProt Q13285); test: Selectivity interaction (Reporter gene assay) EUB0001144a NR5A1; parameters: recommended concentration 1 uM
Steroidogenic factor 1 (Homo sapiens), sequence (Q13285 whole entry): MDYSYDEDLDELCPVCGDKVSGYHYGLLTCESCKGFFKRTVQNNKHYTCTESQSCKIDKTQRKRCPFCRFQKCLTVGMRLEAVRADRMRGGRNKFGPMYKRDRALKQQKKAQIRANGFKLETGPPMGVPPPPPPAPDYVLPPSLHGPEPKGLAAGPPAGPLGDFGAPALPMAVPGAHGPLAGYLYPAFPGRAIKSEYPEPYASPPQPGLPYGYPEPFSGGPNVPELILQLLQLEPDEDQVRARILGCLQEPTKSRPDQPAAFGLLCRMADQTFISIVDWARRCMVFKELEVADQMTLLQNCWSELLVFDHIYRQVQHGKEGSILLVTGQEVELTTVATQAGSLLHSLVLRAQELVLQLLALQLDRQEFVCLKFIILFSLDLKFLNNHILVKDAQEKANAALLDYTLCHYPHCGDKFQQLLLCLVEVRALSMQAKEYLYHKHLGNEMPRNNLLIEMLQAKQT

[6] = target: T3, Alpha trans-inducing protein (Human alphaherpesvirus 1) (UniProt A0A5J6DW59); test: Selectivity interaction (Reporter gene assay) EUB0001144a UL48; parameters: recommended concentration 1 uM
T3 sequence (A0A5J6DW59 as listed by the source): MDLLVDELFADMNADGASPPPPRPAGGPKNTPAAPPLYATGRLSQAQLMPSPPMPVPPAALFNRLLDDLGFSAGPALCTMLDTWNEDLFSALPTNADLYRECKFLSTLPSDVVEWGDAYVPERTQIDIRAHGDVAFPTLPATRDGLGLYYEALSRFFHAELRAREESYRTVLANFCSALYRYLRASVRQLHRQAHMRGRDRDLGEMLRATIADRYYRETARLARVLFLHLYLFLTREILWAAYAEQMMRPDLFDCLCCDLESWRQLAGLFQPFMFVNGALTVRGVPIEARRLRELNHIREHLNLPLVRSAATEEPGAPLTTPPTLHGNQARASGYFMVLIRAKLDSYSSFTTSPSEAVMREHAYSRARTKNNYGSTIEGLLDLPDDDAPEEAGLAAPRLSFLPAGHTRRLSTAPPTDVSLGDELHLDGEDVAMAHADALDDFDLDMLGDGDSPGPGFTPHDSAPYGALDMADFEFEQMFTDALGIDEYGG

[7] = target: T4, Retinoic acid receptor RXR-alpha (Homo sapiens) (UniProt P19793); test: Selectivity interaction (Reporter gene assay) EUB0001144a RXRA; parameters: recommended concentration 1 uM; details: reference bexarotene 1 uM, Selectivity number of off-targets 0.0, Selectivity number of targets 1.0, Source Knowledge inhouse
T4 sequence (whole entry): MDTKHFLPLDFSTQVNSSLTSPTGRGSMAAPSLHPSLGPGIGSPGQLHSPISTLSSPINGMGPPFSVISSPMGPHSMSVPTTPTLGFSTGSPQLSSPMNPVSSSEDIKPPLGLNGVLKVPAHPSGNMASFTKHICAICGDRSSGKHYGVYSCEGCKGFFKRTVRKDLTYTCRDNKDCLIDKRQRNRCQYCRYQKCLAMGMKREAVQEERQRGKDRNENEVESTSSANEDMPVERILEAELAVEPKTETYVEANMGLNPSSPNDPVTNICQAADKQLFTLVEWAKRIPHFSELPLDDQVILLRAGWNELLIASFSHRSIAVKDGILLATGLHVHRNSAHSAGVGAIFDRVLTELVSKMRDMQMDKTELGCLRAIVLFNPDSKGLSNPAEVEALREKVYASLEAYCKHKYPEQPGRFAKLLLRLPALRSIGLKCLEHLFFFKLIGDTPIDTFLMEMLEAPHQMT

[8] = target: T1, Hepatocyte nuclear factor 4-alpha (Homo sapiens); test: Selectivity interaction (Reporter gene assay) EUB0001081a HNF4A; parameters: recommended concentration 10 uM
[9] = target: T2, Nuclear receptor subfamily 2 group C member 1 (Homo sapiens); test: Selectivity interaction (Reporter gene assay) EUB0001081a NR2C1; parameters: recommended concentration 10 uM
[10] = target: Nuclear receptor subfamily 2 group E member 1 (Homo sapiens) (UniProt Q9Y466); test: Selectivity interaction (Reporter gene assay) EUB0001081a NR2E1; parameters: recommended concentration 10 uM
[11] = target: Nuclear receptor subfamily 4immunitygroup A member 1 (Homo sapiens) (UniProt P22736); test: Selectivity interaction (Reporter gene assay) EUB0001081a NR4A1; parameters: recommended concentration 10 uM
[12] = target: Steroidogenic factor 1 (Homo sapiens) (UniProt Q13285); test: Selectivity interaction (Reporter gene assay) EUB0001081a NR5A1; parameters: recommended concentration 10 uM
[13] = target: T3, Alpha trans-inducing protein (Human alphaherpesvirus 1); test: Selectivity interaction (Reporter gene assay) EUB0001081a UL48; parameters: recommended concentration 10 uM
[14] = target: T4, Retinoic acid receptor RXR-alpha (Homo sapiens); test: Selectivity interaction (Reporter gene assay) EUB0001081a RXRA; parameters: recommended concentration 10 uM; details: reference bexarotene 1 uM, Selectivity number of off-targets 0.0, Selectivity number of targets 1.0, Source Knowledge inhouse
[15] = target: T1, Hepatocyte nuclear factor 4-alpha (Homo sapiens); test: Selectivity interaction (Reporter gene assay) EUB0001143a HNF4A; parameters: recommended concentration 1 uM
[16] = target: T2, Nuclear receptor subfamily 2 group C member 1 (Homo sapiens); test: Selectivity interaction (Reporter gene assay) EUB0001143a NR2C1; parameters: recommended concentration 1 uM
[17] = target: Nuclear receptor subfamily 2 group E member 1 (Homo sapiens) (UniProt Q9Y466); test: Selectivity interaction (Reporter gene assay) EUB0001143a NR2E1; parameters: recommended concentration 1 uM
[18] = target: Nuclear receptor subfamily 4immunitygroup A member 1 (Homo sapiens) (UniProt P22736); test: Selectivity interaction (Reporter gene assay) EUB0001143a NR4A1; parameters: recommended concentration 1 uM
[19] = target: Steroidogenic factor 1 (Homo sapiens) (UniProt Q13285); test: Selectivity interaction (Reporter gene assay) EUB0001143a NR5A1; parameters: recommended concentration 1 uM
[20] = target: T3, Alpha trans-inducing protein (Human alphaherpesvirus 1); test: Selectivity interaction (Reporter gene assay) EUB0001143a UL48; parameters: recommended concentration 1 uM
[21] = target: T4, Retinoic acid receptor RXR-alpha (Homo sapiens); test: Selectivity interaction (Reporter gene assay) EUB0001143a RXRA; parameters: recommended concentration 1 uM; details: reference bexarotene 1 uM, Selectivity number of off-targets 0.0, Selectivity number of targets 1.0, Source Knowledge inhouse
[22] = target: T4, Retinoic acid receptor RXR-alpha (Homo sapiens); test: Selectivity interaction (Reporter gene assay) EUB0000835a RXRA; parameters: recommended concentration 1 uM; details: screened at recom. conc., reference bexarotene 1 uM, Selectivity number of off-targets 1.0, Selectivity number of targets 1.0, Source Knowledge inhouse
[23] = target: T3, Alpha trans-inducing protein (Human alphaherpesvirus 1); test: Selectivity interaction (Reporter gene assay) EUB0000835a UL48; parameters: recommended concentration 1 uM
[24] = target: T1, Hepatocyte nuclear factor 4-alpha (Homo sapiens); test: Selectivity interaction (Reporter gene assay) EUB0000835a HNF4A; parameters: recommended concentration 1 uM
[25] = target: T2, Nuclear receptor subfamily 2 group C member 1 (Homo sapiens); test: Selectivity interaction (Reporter gene assay) EUB0000835a NR2C1; parameters: recommended concentration 1 uM
[26] = target: Nuclear receptor subfamily 2 group E member 1 (Homo sapiens) (UniProt Q9Y466); test: Selectivity interaction (Reporter gene assay) EUB0000835a NR2E1; parameters: recommended concentration 1 uM
[27] = target: Nuclear receptor subfamily 4immunitygroup A member 1 (Homo sapiens) (UniProt P22736); test: Selectivity interaction (Reporter gene assay) EUB0000835a NR4A1; parameters: recommended concentration 1 uM
[28] = target: Steroidogenic factor 1 (Homo sapiens) (UniProt Q13285); test: Selectivity interaction (Reporter gene assay) EUB0000835a NR5A1; parameters: recommended concentration 1 uM
[29] = target: Steroidogenic factor 1 (Homo sapiens) (UniProt Q13285); test: Selectivity interaction (Reporter gene assay) EUB0001139a NR5A1; parameters: recommended concentration 1 uM; details: screened at recom. conc., Selectivity number of off-targets 1.0, Selectivity number of targets 5.0, Source Knowledge inhouse
[30] = target: T1, Hepatocyte nuclear factor 4-alpha (Homo sapiens); test: Selectivity interaction (Reporter gene assay) EUB0001139a HNF4A; parameters: recommended concentration 1 uM
[31] = target: T2, Nuclear receptor subfamily 2 group C member 1 (Homo sapiens); test: Selectivity interaction (Reporter gene assay) EUB0001139a NR2C1; parameters: recommended concentration 1 uM
[32] = target: Nuclear receptor subfamily 2 group E member 1 (Homo sapiens) (UniProt Q9Y466); test: Selectivity interaction (Reporter gene assay) EUB0001139a NR2E1; parameters: recommended concentration 1 uM
[33] = target: Nuclear receptor subfamily 4immunitygroup A member 1 (Homo sapiens) (UniProt P22736); test: Selectivity interaction (Reporter gene assay) EUB0001139a NR4A1; parameters: recommended concentration 1 uM
[34] = target: T3, Alpha trans-inducing protein (Human alphaherpesvirus 1); test: Selectivity interaction (Reporter gene assay) EUB0001139a UL48; parameters: recommended concentration 1 uM
[35] = target: T4, Retinoic acid receptor RXR-alpha (Homo sapiens); test: Selectivity interaction (Reporter gene assay) EUB0001139a RXRA; parameters: recommended concentration 1 uM

CCO[C@@H](Cc1ccc(OCCc2ccc(OS(C)(=O)=O)cc2)cc1)C(=O)O
Fold activation [1]: 1.01 | Fold activation [2]: 1.11 | Fold activation [3]: 1.07 | Remaining activity [4]: 0.821 | Fold activation [5]: 1.01 | P-value [6]: 0.0008 | Relative activation [7]: 0.813%

CC(C)c1cc(Oc2c(Cl)cc(-n3nc(C#N)c(=O)[nH]c3=O)cc2Cl)n[nH]c1=O
Remaining activity [8]: 0.559 | Remaining activity [9]: 0.569 | Remaining activity [10]: 0.788 | Remaining activity [11]: 0.741 | Remaining activity [12]: 0.559 | P-value [13]: 0.0087 | Relative activation [14]: 1.67%

COc1cc2c(cc1CC=C(C)C)C(=O)C[C@@H](c1ccc(O)cc1)O2
Remaining activity [15]: 0.853 | Remaining activity [16]: 0.85 | Remaining activity [17]: 0.683 | Remaining activity [18]: 0.758 | Remaining activity [19]: 0.857 | P-value [20]: 3.16e-05 | Relative activation [21]: 0.529%

C[C@H]1[C@H]2CC[C@H]3[C@@H]4CC=C5C[C@@H](N(C)C)CC[C@]5(C)[C@H]4CC[C@]23CN1C
Relative activation [22]: 19.4% | P-value [23]: 0.00302 | Fold activation [24]: 1.09 | Remaining activity [25]: 0.83 | Remaining activity [26]: 0.746 | Remaining activity [27]: 0.964 | Remaining activity [28]: 0.758

O=C(O)Cc1cc(I)c(Oc2ccc(O)c(I)c2)c(I)c1
Fold activation [29]: 2 | Fold activation [30]: 1.47 | Remaining activity [31]: 0.686 | Fold activation [32]: 1.12 | Remaining activity [33]: 0.863 | P-value [34]: 0.009 | Relative activation [35]: 0.726%
